Data from patent publication EP2848693A1, “Concatenation of halogenated alkenyl diphosphate derivatives” (LANXESS Deutschland GmbH, priority 2013, dated 2015).

How the values were obtained:
[1] = target: T1, ThkCPT (Thermococcus kodakarensis, UniProt Q5JGE1); experiment: Product chain length by HPLC with fluorescent starter substrate 110; type: biochemical, Thermococcus kodakaraensis; conditions: 10 µM ThkCPT, 110 as starter substrate, room temperature 25°C
T1 construct: made in house; host or cells: E. coli
T1 sequence (Q5JGE1 1-264): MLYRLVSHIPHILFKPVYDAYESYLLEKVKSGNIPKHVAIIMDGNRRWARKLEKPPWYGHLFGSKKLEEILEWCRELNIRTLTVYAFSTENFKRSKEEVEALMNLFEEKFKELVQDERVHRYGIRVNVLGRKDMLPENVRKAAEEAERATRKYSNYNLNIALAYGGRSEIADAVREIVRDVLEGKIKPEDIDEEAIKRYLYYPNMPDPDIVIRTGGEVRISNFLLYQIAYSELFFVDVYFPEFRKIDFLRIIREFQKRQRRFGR
Description: Zur Bestimmung der Produktkettenlängen wurden 500 µL Enzymassays in MS-Gläschen durchgeführt. […] Die Extraktion der Polyprenyldiphosphate erfolgte mit 500 µL 1-Butanol. Die Butanolphase wurde in ein neues Glas überführt und unter Stickstoffstrom von dem Lösungsmittel befreit. Die Hydrolyse der Diphosphate zum Polyprenol erfolgte durch Zugabe von 200 µL Hydrolysepuffer (20% Isopropanol, 4,4 Units/mL saure Phophatase aus Kartoffeln, 0,1 % Triton X-100, 50 mM Natriumacetat (pH 4,7)) und wurde über Nacht bei 37 °C inkubiert. Die Polyprenole wurden mit 500 µL nHexan extrahiert und zur weiteren DC- oder HPLC-Analyse vorbereitet. Für DC-Experimente und LC/ESI-MS-Analysen wurde die nHexan-Phase in ein neues Glas überführt, das Lösungsmittel abgedampft und die Produkte erneut in 100 µL nHexan resuspendiert um eine Aufkonzentrierung zu erreichen. Für HPLC-Analysen mit 110 ((2E,6E)-8-O-(N-methyl-2-aminobenzoyl)-3,7-dimethyl-2,6-octandien-1-diphosphat) als Startersubstrat wurde die nHexan-Phase 1:3 verdünnt in das HPLC-System mittels Autosampler injiziert.
Die HPLC-Analyse der Polyprenole erfolgte an einer Anlage von Merck HITACHI D-7000, wobei als stationäre Phase eine YMC-ODS AQ (150 x 4 mm, 5 µm; YMC Europe GmbH, Dinslaken) Säule verwendet wurde. Die Elution erfolgte mit 1 mL·min^-1 und die Detektion bei 210 nm mit einem UV-VIS Detektor: Merck HITACHI L-7420. Das Injektionsvolumen betrug dabei 5 µL. Die mobile Phase setzte sich aus Laufmittel A (MeOH/H2O/Isopropanol 12:1:8 (v/v/v)) und Laufmittel B (nHexan/Isopropanol 7:3 (v/v)) zusammen. Die Probenaufgabe erfolgte mittels Autosampler (Merck HITACHI L-7250). [drawing 35]
Zur selektiven und vor allem sensitiven Detektion von Polyprenolen kann ein alternatives, fluoreszierendes Startersubstrat verwendet werden, (2E,6E)-8-O-(N-methyl-2-aminobenzoyl)-3,7-dimethyl-2,6-octandien-1-diphosphat (110). Die Analyse erfolgte wie in Beispiel 6 beschrieben. Dabei wurden 3 µL pro Probe injiziert und die Detektion erfolgte über Fluoreszenz: Ex 352 nm / Em 420 nm wobei das Gerät Merck HITACHI L-7480 als Fluoreszenzdetektor verwendet wurde. […]

[2] = target: T2, MtUPPS (Mycobacterium tuberculosis, UniProt P9WFF7); experiment: Prenyltransferase activity test, conversion of FPP with elongation substrate (MTP phosphate detection assay); type: biochemical; conditions: 5 µM E,E-FPP, 200 µM elongation substrate, 50 µM enzyme, room temperature
T2 construct: poly-Histidin-Tag (His6) (N); made in house; host or cells: E. coli BL21 (DE3)
T2 sequence (P9WFF7 whole entry): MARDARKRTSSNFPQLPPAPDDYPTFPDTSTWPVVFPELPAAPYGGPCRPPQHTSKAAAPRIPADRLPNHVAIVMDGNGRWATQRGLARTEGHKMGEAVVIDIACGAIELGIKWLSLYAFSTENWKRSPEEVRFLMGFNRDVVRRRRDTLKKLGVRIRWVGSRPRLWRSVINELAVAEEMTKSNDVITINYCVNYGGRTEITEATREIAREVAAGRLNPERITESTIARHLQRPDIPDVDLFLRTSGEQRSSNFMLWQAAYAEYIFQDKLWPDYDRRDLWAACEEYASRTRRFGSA
Description: (§1) Die Aktivität der Prenyltransferasen wurde hinsichtlich der Umsetzung von Farnesyldiphosphat (FPP) als Startersubstrat und Isopentenyldiphosphat (IPP), und Cl-BPP bzw. Br-BPP mit Hilfe des MTP-Phosphatdetektionsassays bestimmt.
(§2) Cl-BPP und jeweils 50 µM Enzym bei Raumtemperatur durchgeführt. […] Cl-BPP gezeigt werden. Als Negativkontrolle diente ein Ansatz ohne Enzym (nicht gezeigt).

[3] = target: T3, HpUPPS (Helicobacter pylori, UniProt P55984); experiment: as above; type: biochemical; conditions: 5 µM E,E-FPP, 200 µM elongation substrate, 50 µM enzyme, room temperature
T3 construct: poly-Histidin-Tag (His6) (N); made in house; host or cells: E. coli BL21 (DE3)
T3 sequence (P55984 whole entry): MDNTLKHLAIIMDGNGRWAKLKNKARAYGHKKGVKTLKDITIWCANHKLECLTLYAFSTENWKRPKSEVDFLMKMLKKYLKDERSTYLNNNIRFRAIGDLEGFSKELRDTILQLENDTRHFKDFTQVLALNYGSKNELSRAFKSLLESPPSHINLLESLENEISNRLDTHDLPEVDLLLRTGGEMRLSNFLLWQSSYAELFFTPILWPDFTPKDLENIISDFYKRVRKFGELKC
Description: as §1, §2

[4] = target: T4, EcUPPS (Escherichia coli, UniProt P60472); experiment: as above; type: biochemical; conditions: 5 µM E,E-FPP, 200 µM elongation substrate, 50 µM enzyme, room temperature
T4 construct: made in house; host or cells: E. coli
T4 sequence (P60472 whole entry): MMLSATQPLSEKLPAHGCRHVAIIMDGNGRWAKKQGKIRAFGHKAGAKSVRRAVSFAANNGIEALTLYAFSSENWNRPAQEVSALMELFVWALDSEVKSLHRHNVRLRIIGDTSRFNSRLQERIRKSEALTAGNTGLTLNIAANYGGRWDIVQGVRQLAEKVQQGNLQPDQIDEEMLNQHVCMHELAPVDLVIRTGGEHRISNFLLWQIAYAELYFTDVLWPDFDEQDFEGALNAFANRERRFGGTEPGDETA
Description: as §1, §2

[5] = target: T5, MIUPPS (Micrococcus luteus, UniProt O82827); experiment: as above; type: biochemical; conditions: 5 µM E,E-FPP, 200 µM elongation substrate, 50 µM enzyme, room temperature
T5 construct: poly-Histidin-Tag (His6) (N); made in house; host or cells: E. coli BL21 (DE3)
T5 sequence (O82827 1-249): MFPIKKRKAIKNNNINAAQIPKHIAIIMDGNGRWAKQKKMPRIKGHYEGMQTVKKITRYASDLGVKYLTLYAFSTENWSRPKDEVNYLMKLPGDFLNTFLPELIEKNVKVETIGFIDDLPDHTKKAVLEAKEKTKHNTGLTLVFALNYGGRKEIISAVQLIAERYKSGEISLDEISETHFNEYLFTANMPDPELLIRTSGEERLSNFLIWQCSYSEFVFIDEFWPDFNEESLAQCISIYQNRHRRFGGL
Description: as §1, §2

SMILES: C=C(Cl)CCOP(=O)(O)OP(=O)(O)O [Cl-BPP, 3-Chlor-3-Butenyldiphosphat]
- Kondensationen (Reaktionsprodukte) [1]: mehr als zwei Kondensationen
- Aktivität (Umsetzung von FPP mit Elongationssubstrat) [2]: höchste Aktivität
- Aktivität (Umsetzung von FPP mit Elongationssubstrat) [3]: im geringeren Maße
- Aktivität (Umsetzung von FPP mit Elongationssubstrat) [4]: höchste Aktivität
- Aktivität (Umsetzung von FPP mit Elongationssubstrat) [5]: im geringeren Maße
